Experimental data from patent US8481528B2 (Hoffmann-La Roche Inc., priority 2010, dated 2013).
Where a name gives a salt, the structure may show the parent alone.

What follows are compounds tested against T1, human V1a receptor (Homo sapiens, UniProt P37288) (assay: human V1a receptor binding (3H-Vasopressin SPA, HEK293 membranes)). Settings: not given.
T1 construct: expressed in transfected cells; host or cells: HEK293 cells, transiently transfected; cell membranes
Procedure: The human V1a receptor was cloned by RT-PCR from total human liver RNA. The coding sequence was subcloned in an expression vector after sequencing to confirm the identity of the amplified sequence. […] Cell membranes were prepared from HEK293 cells transiently transfected with the expression vector and grown in 20 liter fermenters with the following protocol.
50 g of cells are resuspended in 30 ml freshly prepared ice cold Lysis buffer (50 mM HEPES, 1 mM EDTA, 10 mM magnesium dichloride adjusted to pH=7.4+complete cocktail of protease inhibitor (Roche Diagnostics)). Homogenized with Polytron for 1 min and sonicated on ice for 2×2 minutes at 80% intensity (Vibracell sonicator). The preparation is centrifuged 20 min at 500 g at 4° C., the pellet is discarded and the supernatant centrifuged 1 hour at 43′000 g at 4° C. (19'000 rpm). The pellet is resuspended in 12.5 ml Lysis buffer+12.5 ml sucrose 20% and homogenized using a Polytron for 1-2 min. The protein concentration is determined by the Bradford method and aliquots are stored at −80° C. until use. For binding studies 60 mg Yttrium silicate SPA beads (Amersham®) are mixed with an aliquot of membrane in binding buffer (50 mM Tris, 120 mM sodium chloride, 5 mM potassium chloride, 2 mM calcium dichloride, 10 mM magnesium dichloride) for 15 minutes with mixing. 50 μl of bead/membrane mixture is then added to each well of a 96 well plate, followed by 50 μl of 4 nM 3H-Vasopressin (American Radiolabeled Chemicals). For total binding measurement 100 μl of binding buffer are added to the respective wells, for non-specific binding 100 μl of 8.4 mM cold vasopressin and for compound testing 100 μl of a serial dilution of each compound in 2% dimethyl sulfoxide. The plate is incubated 1 h at room temperature, centrifuged 1 min at 1000 g and counted on a Packard Top-Count. Non-specific binding counts are subtracted from each well and data is normalized to the maximum specific binding set at 100%. To calculate an IC50 the curve is fitted using a non-linear regression model (XLfit) and the Ki is calculated using the Cheng-Prussoff equation.

T1 sequence (P37288 whole entry): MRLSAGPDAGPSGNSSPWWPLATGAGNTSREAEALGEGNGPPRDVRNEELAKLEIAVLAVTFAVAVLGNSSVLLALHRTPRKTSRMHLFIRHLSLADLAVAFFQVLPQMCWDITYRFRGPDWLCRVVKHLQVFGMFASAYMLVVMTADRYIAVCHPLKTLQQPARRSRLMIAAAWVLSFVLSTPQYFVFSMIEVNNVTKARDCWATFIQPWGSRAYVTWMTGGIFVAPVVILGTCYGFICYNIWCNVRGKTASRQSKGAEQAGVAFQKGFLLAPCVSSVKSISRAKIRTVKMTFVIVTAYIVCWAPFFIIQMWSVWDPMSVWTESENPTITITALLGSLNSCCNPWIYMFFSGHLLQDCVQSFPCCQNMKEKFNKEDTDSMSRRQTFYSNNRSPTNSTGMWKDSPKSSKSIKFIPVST

Going from `CN1Cc2cc(Cl)ccc2-n2c(nnc2[C@H]2CC[C@@H](c3noc4ccccc43)CC2)C1` [Example 4, cis-1-(4-Benzo[d]isoxazol-3-yl-cyclohexyl)-8-chloro-5-methyl-5,6-dihydro-4H-2,3,5,10b-tetraaza-benzo[e]azulene] to `CN1Cc2cc(Cl)ccc2-n2c(nnc2[C@H]2CC[C@H](c3noc4ccccc43)CC2)C1` [Example 6, trans-1-(4-Benzo[d]isoxazol-3-yl-cyclohexyl)-8-chloro-5-methyl-5,6-dihydro-4H-2,3,5,10b-tetraaza-benzo[e]azulene], the Ki falls from 7.59 nM to 0.794 nM (9.6-fold). The second binds more tightly here.

First: CC(C)(C)OC(=O)N1Cc2cc(Cl)ccc2-n2c(nnc2[C@H]2CC[C@H](c3noc4ncccc43)CC2)C1 [Example 16, trans-8-Chloro-1-(4-isoxazolo[5,4-b]pyridin-3-yl-cyclohexyl)-4H,6H-2,3,5,10b-tetraaza-benzo[e]azulene-5-carboxylic acid tert-butyl ester]
Second: CC(=O)N1Cc2cc(Cl)ccc2-n2c(nnc2[C@H]2CC[C@H](c3nsc4ccccc43)CC2)C1 [Example 24, trans-1-[1-(4-Benzo[d]isothiazol-3-yl-cyclohexyl)-8-chloro-4H,6H-2,3,5,10b-tetraaza-benzo[e]azulen-5-yl]-ethanone]
The Ki of the first is 9.1-fold higher: 3.63 nM for the first, 0.398 nM for the second. The second binds more tightly here.

Compared with `Clc1ccc2c(c1)CNCc1nnc([C@H]3CC[C@H](c4nsc5ccccc54)CC3)n1-2` [Example 20, trans-1-(4-Benzo[d]isothiazol-3-yl-cyclohexyl)-8-chloro-5,6-dihydro-4H-2,3,5,10b-tetraaza-benzo[e]azulene hydrochloride], `Clc1ccc2c(c1)CN(C1CCC1)Cc1nnc([C@H]3CC[C@H](c4nsc5ccccc54)CC3)n1-2` [Example 22, trans-1-(4-Benzo[d]isothiazol-3-yl-cyclohexyl)-8-chloro-5-cyclobutyl-5,6-dihydro-4H-2,3,5,10b-tetraaza-benzo[e]azulene] is 5-fold lower in Ki: 1.51 nM for the first, 0.302 nM for the second.

Same assay, conditions: 3H-Vasopressin displacement, membranes of HEK293 cells transiently transfected with human V1a receptor; Ki by Cheng-Prusoff; read-out: pKi (hV1a) (converted)

First: CC(C)(C)OC(=O)N1Cc2cc(Cl)ccc2-n2c(nnc2[C@H]2CC[C@@H](c3noc4ccccc43)CC2)C1 [Example 1, cis-1-(4-Benzo[d]isoxazol-3-yl-cyclohexyl)-8-chloro-4H,6H-2,3,5,10b-tetraaza-benzo[e]azulene-5-carboxylic acid tert-butyl ester]
Second: CC(C)(C)OC(=O)N1Cc2cc(Cl)ccc2-n2c(nnc2[C@H]2CC[C@H](c3noc4ccccc43)CC2)C1 [Example 2, trans-1-(4-Benzo[d]isoxazol-3-yl-cyclohexyl)-8-chloro-4H,6H-2,3,5,10b-tetraaza-benzo[e]azulene-5-carboxylic acid tert-butyl ester]
The Ki of the first is 1.9-fold higher: 8.91 nM for the first, 4.79 nM for the second.

First: Clc1ccc2c(c1)CNCc1nnc([C@H]3CC[C@@H](c4noc5ccccc54)CC3)n1-2 [Example 3, cis-1-(4-Benzo[d]isoxazol-3-yl-cyclohexyl)-8-chloro-5,6-dihydro-4H-2,3,5,10b-tetraaza-benzo[e]azulene hydrochloride]
Second: Clc1ccc2c(c1)CNCc1nnc([C@H]3CC[C@H](c4noc5ccccc54)CC3)n1-2 [Example 5, trans-1-(4-Benzo[d]isoxazol-3-yl-cyclohexyl)-8-chloro-5,6-dihydro-4H-2,3,5,10b-tetraaza-benzo[e]azulene hydrochloride]
The Ki of the first is 13-fold higher: 11.2 nM for the first, 0.891 nM for the second.

`CC(C)(C)OC(=O)N1Cc2cc(Cl)ccc2-n2c(nnc2[C@H]2CC[C@H](c3noc4cc(F)ccc43)CC2)C1` [Example 7, trans-8-Chloro-[4-(6-fluoro-benzo[d]isoxazol-3-yl)-cyclohexyl]-4H,6H-2,3,5,10b-tetraaza-benzo[e]azulene-5-carboxylic acid tert-butyl ester] and `CC(C)(C)OC(=O)N1Cc2cc(Cl)ccc2-n2c(nnc2[C@H]2CC[C@H](c3noc4ccc(F)cc43)CC2)C1` [Example 10, trans-8-Chloro-1-[4-(5-fluoro-benzo[d]isoxazol-3-yl)-cyclohexyl]-4H,6H-2,3,5,10b-tetraaza-benzo[e]azulene-5-carboxylic acid tert-butyl ester] are within 1.5-fold of each other in Ki: 4.79 nM for the first, 3.24 nM for the second.

`Fc1ccc2c(c1)onc2[C@H]1CC[C@H](c2nnc3n2-c2ccc(Cl)cc2CNC3)CC1` [Example 8, trans-8-Chloro-1-[4-(6-fluoro-benzo[d]isoxazol-3-yl)-cyclohexyl]-5,6-dihydro-4H-2,3,5,10b-tetraaza-benzo[e]azulene hydrochloride] and `Fc1ccc2onc([C@H]3CC[C@H](c4nnc5n4-c4ccc(Cl)cc4CNC5)CC3)c2c1` [Example 11, trans-8-Chloro-1-[4-(5-fluoro-benzo[d]isoxazol-3-yl)-cyclohexyl]-5,6-dihydro-4H-2,3,5,10b-tetraaza-benzo[e]azulene hydrochloride] are within 1.5-fold of each other in Ki: 1.51 nM for the first, 2.09 nM for the second.

Going from `CN1Cc2cc(Cl)ccc2-n2c(nnc2[C@H]2CC[C@H](c3noc4cc(F)ccc43)CC2)C1` [Example 9, trans-8-Chloro-1-[4-(6-fluoro-benzo[d]isoxazol-3-yl)-cyclohexyl]-5-methyl-5,6-dihydro-4H-2,3,5,10b-tetraaza-benzo[e]azulene] to `CN1Cc2cc(Cl)ccc2-n2c(nnc2[C@H]2CC[C@H](c3noc4ccc(F)cc43)CC2)C1` [Example 12, trans-8-Chloro-1-[4-(5-fluoro-benzo[d]isoxazol-3-yl)-cyclohexyl]-5-methyl-5,6-dihydro-4H-2,3,5,10b-tetraaza-benzo[e]azulene], the Ki falls from 1.2 nM to 0.794 nM (1.5-fold).

Going from `CC(C)(C)OC(=O)N1Cc2cc(Cl)ccc2-n2c(nnc2[C@H]2CC[C@H](c3noc4cccnc43)CC2)C1` [Example 13, trans-8-Chloro-1-(4-isoxazolo[4,5-b]pyridin-3-yl-cyclohexyl)-4H,6H-2,3,5,10b-tetraaza-benzo[e]azulene-5-carboxylic acid tert-butyl ester] to `CN1Cc2cc(Cl)ccc2-n2c(nnc2[C@H]2CC[C@H](c3noc4cccnc43)CC2)C1` [Example 15, trans-8-Chloro-1-(4-isoxazolo[4,5-b]pyridin-3-yl-cyclohexyl)-5-methyl-5,6-dihydro-4H-2,3,5,10b-tetraaza-benzo[e]azulene], the Ki falls from 2.69 nM to 0.708 nM (3.8-fold).

Compared with `Clc1ccc2c(c1)CNCc1nnc([C@H]3CC[C@H](c4noc5cccnc54)CC3)n1-2` [Example 14, trans-8-Chloro-1-(4-isoxazolo[4,5-b]pyridin-3-yl-cyclohexyl)-5,6-dihydro-4H-2,3,5,10b-tetraaza-benzo[e]azulene hydrochloride], `Clc1ccc2c(c1)CNCc1nnc([C@H]3CC[C@H](c4noc5ncccc54)CC3)n1-2` [Example 17, trans-8-Chloro-1-(4-isoxazolo[5,4-b]pyridin-3-yl-cyclohexyl)-5,6-dihydro-4H-2,3,5,10b-tetraaza-benzo[e]azulene hydrochloride] is 2.4-fold higher in Ki: 2.19 nM for the first, 5.25 nM for the second.

Compared with `CN1Cc2cc(Cl)ccc2-n2c(nnc2[C@H]2CC[C@H](c3noc4ncccc43)CC2)C1` [Example 18, trans-8-Chloro-1-(4-isoxazolo[5,4-b]pyridin-3-yl-cyclohexyl)-5-methyl-5,6-dihydro-4H-2,3,5,10b-tetraaza-benzo[e]azulene], `CN1Cc2cc(Cl)ccc2-n2c(nnc2[C@H]2CC[C@H](c3nsc4ccccc43)CC2)C1` [Example 21, trans-1-(4-Benzo[d]isothiazol-3-yl-cyclohexyl)-8-chloro-5-methyl-5,6-dihydro-4H-2,3,5,10b-tetraaza-benzo[e]azulene] is 1.8-fold higher in Ki: 0.891 nM for the first, 1.58 nM for the second.

Compared with `CC(C)(C)OC(=O)N1Cc2cc(Cl)ccc2-n2c(nnc2[C@H]2CC[C@H](c3nsc4ccccc43)CC2)C1` [Example 19, trans-1-(4-Benzo[d]isothiazol-3-yl-cyclohexyl)-8-chloro-4H,6H-2,3,5,10b-tetraaza-benzo[e]azulene-5-carboxylic acid tert-butyl ester], `CN(C)CC(=O)N1Cc2cc(Cl)ccc2-n2c(nnc2[C@H]2CC[C@H](c3nsc4ccccc43)CC2)C1` [Example 25, trans-1-[1-(4-Benzo[d]isothiazol-3-yl-cyclohexyl)-8-chloro-4H,6H-2,3,5,10b-tetraaza-benzo[e]azulen-5-yl]-2-dimethylamino-ethanone] is 25-fold lower in Ki: 7.59 nM for the first, 0.302 nM for the second.

First: CNCCN1Cc2cc(Cl)ccc2-n2c(nnc2[C@H]2CC[C@H](c3nsc4ccccc43)CC2)C1 [Example 23, trans-{2-[1-(4-Benzo[d]isothiazol-3-yl-cyclohexyl)-8-chloro-4H,6H-2,3,5,10b-tetraaza-benzo[e]azulen-5-yl]-ethyl}-methyl-amine]
Second: CS(=O)(=O)N1Cc2cc(Cl)ccc2-n2c(nnc2[C@H]2CC[C@H](c3nsc4ccccc43)CC2)C1 [Example 26, trans-1-(4-Benzo[d]isothiazol-3-yl-cyclohexyl)-8-chloro-5-methanesulfonyl-5,6-dihydro-4H-2,3,5,10b-tetraaza-benzo[e]azulene]
The Ki of the first is 2-fold higher: 0.603 nM for the first, 0.302 nM for the second.
